Measurements published in patent US8258098B2, “Antitumoral treatments” (Pharma Mar, S.A., priority 2006, dated 2012).
Where two headings read alike, the source gives them in different places.

Key:
A549 cells = test: MTS cytotoxicity assay, 72 hours, single agents and combinations with Aplidine; assay type: cell-based; details: A549, 72 hours drug exposure, read-out: IC50 (Molar)
Protocol: (§1) Day before plating cells all cultures were fed with fresh, complete growth media. On the harvest (plating) day cells were counted by Trypan Blue exclusion staining method (basic cell culture). Cells were harvested and seeded in 96 well microtiter plates at 10,000 cells per well in 190 μL of media and incubated for 24 hours to allow the cells to attach before drug addition. Cells were treated with the drugs and the cytotoxic effect was measured by the MTS Assay (Tetrazolium), which is a colorimetric method for determining the number of viable cells. After the 72 hours of incubation with drug, 25 μL of MTS+PMS solution was added to each microtiter well and incubated for 4 hours at 37° C. Plates were then removed from incubator and placed on plate shaker for 5 minutes (covered with aluminium foil for protection from light). Optical densities were read at 490 nm on spectrophotometer plate reader.
(§2) The microtiter plates were incubated for 72 hrs, at 5% CO2 and 37° C. The cytotoxic effect was measured by MTS Assay. Optical densities read at 490 nm. Normalized data was plotted and interpreted as described. Data was analysed as: • 1. Prism (Graphpad) software program was used to normalized the data to control values (100%=cell growth in the absence of agent (drug); 0%=blank control). • 2. Data normalized were plotted as scatter plots.
(§3) Conversely, antagonism was concluded when inhibition was lower than both maxima. […] Statistical significance was assessed by performing a student's t-test on the inhibition at each dose ratio versus the inhibition at the maximum for each drug.
(§4) As a visual aid, response values were plotted on a scatter plot with dose ratios given on the x-axis and % response values on the y-axis. […] In cases where response values at the two endpoints were approximately equivalent, points lying above or below this predicted line of additivity could be interpreted as representing antagonistic or synergistic drug interaction, respectively.

HL60 cells = test: as above; assay type: cell-based; details: read-out: IC50 (Molar)
Protocol: as §1, §2, §3, §4

HT29 cells = test: as above; assay type: cell-based; details: read-out: IC50 (Molar)
Protocol: as §1, §2, §3, §4

MOLT3 cells = test: as above; assay type: cell-based; details: read-out: IC50 (Molar)
Protocol: as §1, §2, §3, §4

MX1 cells = test: as above; assay type: cell-based; details: MX1, 72 hours drug exposure, read-out: IC50 (Molar)
Protocol: as §1, §2, §3, §4

PC3 cells = test: as above; assay type: cell-based; details: read-out: IC50 (Molar)
Protocol: as §1, §2, §3, §4

SKBR3 cells = test: as above; assay type: cell-based; details: read-out: IC50 (Molar)
Protocol: as §1, §2, §3, §4

RPMI-8226 cell line = test: cells; assay type: cell-based; details: Homo sapiens, RPMI-8226, 72 h, read-out: IC50 (Molar)
Protocol: (§5) These cell lines were cultured in RPMI1640 medium with 10% FBS and 1% L-Glutamine. Each cell line was plated in a 96 well plates at 20,000 cell per well.
(§6) Each serial dilution was paired with 4 different concentrations of Bortezomib or Melphalan.
(§7) The plates were incubated for 3 days at 37° C. and 5% CO2. The plates were read using the Promega MTS assay system with MTS being metabolized by living cells turning into formazan which is […] at 490 nm wavelength. This is an indirect measure of cell viability. These were analyzed using the Softmax Pro program which determines cell viability based percent of control wells. This IC50 data was then transferred into the CalcuSyn program for combination index analysis. CalcuSyn compares IC50 the values of the drugs alone with that of the drugs in combination using an algorithm to determine a combination index.

U266B1 cell line = test: cells; assay type: cell-based; details: 72 h, read-out: IC50 (Molar)
Protocol: as §5, §6, §7

[1] = tested on: RPMI 8226 human myeloma cells; test: Antitumor efficacy against subcutaneous-implanted myeloma xenograft; assay type: in vivo, male, SCID mice; details: RPMI 8226 xenograft, median tumor weight; Aplidine 60 μg/kg/dose IP q1d × 9 day 18, 38; Bortezomib 0.35 mg/kg/dose IV
Protocol: (§8) The animals were housed in microisolator cages, up to five per cage in a 12-hour light/dark cycle. Six-weeks-old male, SCID mice were acclimated in the laboratories for one week prior to the experiment.
Each mouse received 2×10^7 cells resuspended in 0.2 mL of Matrigel®. […] Cells were harvested after four passages in culture. The cells were removed from the flasks, placed in 50-mL centrifuge tubes and centrifuged at 1,000 rpm for 10 minutes in a refrigerated centrifuge. The cell pellets were resuspended in fresh complete medium. The cell count and viability were determined with a Beckman Coulter VI CELL XR cell counter and viability analyzer. The cell suspension was recentrifuged, and the cell pellet was resuspended in Matrigel® at a cell density of 1.0×10^8 cells/mL and placed on wet ice.
The day of tumor cell inoculation was designated as Day 0. […] Those animals selected with tumors in the proper size range were assigned to four treatment groups so that the median tumor weights on the first day of treatment were as close to each other as possible. […]
Animals were observed daily and clinical signed were noted. The s.c. tumors were measured and the animals were weighed twice weekly starting with the first day of treatment, Day 18 after tumor cell inoculation.

HL-60 cells = test: MTS assay Example 2, single agents and combinations; assay type: cell-based; details: Homo sapiens; HL-60, MTS; read-out: IC50 (Molar)
Protocol: (§9) The day before plating cells all cultures were fed with fresh, complete growth media. On the harvest (plating) day cells were counted by Trypan Blue exclusion staining method.
(§10) Cells were harvested and seeded in 96 well microtiter plates at 15,000 cells per well in 190 μl of media and incubated for 24 hours to allow the cells to attach before drug addition.
(§11) The cytotoxic effect was measured by the MTS Assay (Tetrazolium), which is a colorimetric method for determining the number of viable cells.
(§12) After 72 hours of incubation with tested agents 25 μl of MTS+PMS solution was added to each microtiter well and incubated for 4 hours at 37° C. Plates were then removed from incubator and placed on plate shaker for 5 minutes (covered with aluminum foil for protection from light). Optical densities were read at 490 nm on spectrophotometer plate reader. Data was analyzed as: • 1. Prism (Graphpad) software program was used to normalized the data to control values (100%=cell growth in the absence of agent (drug); 0%=blank control). • 2. Data normalized were plotted as scatter plots.
as §3
as §4, with “interaction” for “interaction,”

HUNS-1 cells = test: as above; assay type: cell-based; details: HuNS1; HUNS-1, MTS; read-out: IC50 (Molar)
Protocol: as §9, §10, §11, §12, §3
as §4, with “interaction” for “interaction,”

K562 cells = test: as above; assay type: cell-based; details: Homo sapiens, read-out: IC50 (Molar)
Protocol: as §9, §10, §11, §12, §3
as §4, with “interaction” for “interaction,”

MC116 cells = test: as above; assay type: cell-based; details: Homo sapiens, read-out: IC50 (Molar)
Protocol: as §9, §10, §11, §12, §3
as §4, with “interaction” for “interaction,”

MOLT-3 cells = test: as above; assay type: cell-based; details: Homo sapiens; MOLT-3, MTS; read-out: IC50 (Molar)
Protocol: as §9, §10, §11, §12, §3
as §4, with “interaction” for “interaction,”

NCI-H929 cells = test: as above; assay type: cell-based; details: Homo sapiens, read-out: IC50 (Molar)
Protocol: as §9, §10, §11, §12, §3
as §4, with “interaction” for “interaction,”

RAMOS cells = test: as above; assay type: cell-based; details: Homo sapiens, read-out: IC50 (Molar)
Protocol: as §9, §10, §11, §12, §3
as §4, with “interaction” for “interaction,”

RPMI 8226 cells = test: as above; assay type: cell-based; details: Homo sapiens; RPMI 8226, MTS; read-out: IC50 (Molar)
Protocol: as §9, §10, §11, §12, §3
as §4, with “interaction” for “interaction,”

U266B-1 cells = test: as above; assay type: cell-based; details: U266B-1, MTS; read-out: IC50 (Molar)
Protocol: as §9, §10, §11, §12, §3
as §4, with “interaction” for “interaction,”

U937 cells = test: as above; assay type: cell-based; details: Homo sapiens, U-937, read-out: IC50 (Molar)
Protocol: as §9, §10, §11, §12, §3
as §4, with “interaction” for “interaction,”

H9 cells = test: MTS assay Example 2, single agents; assay type: cell-based; details: Homo sapiens, read-out: IC50 (Molar)
Protocol: as §9, §10, §11, §12

HUT78 cells = test: MTS assay Example 2, single agents; assay type: cell-based; details: Homo sapiens, read-out: IC50 (Molar)
Protocol: as §9, §10, §11, §12

RL human lymphoma cells = test: Antitumor efficacy against subcutaneous-implanted lymphoma xenograft; assay type: in vivo; details: median tumor weight, Aplidine 60 μg/kg/dose IP q1d × 9 day 15, 28, Rituximab 20 mg/kg/dose IP q3d × 2 day 15, 22, 29, 36
Excerpt: The purpose of this study was to evaluate the antitumor efficacy of Aplidine when administered in combination with rituximab against subcutaneous-implanted RL human lymphoma cells in […], SCID mice.
as §8
Each mouse was inoculated s.c. near the right flank with RL human lymphoma cells from an in vitro cell culture using a 23-gauge needle. Each mouse received 1.0×10^7 cells resuspended in 0.2 mL of Matrigel®. […] The cell count was determined with a Coulter Model Z1 cell counter and viability was measured following propidium iodide staining and analyzed using a Beckman Coulter EPICS XL flow cytometer. […]
Animals were observed daily and clinical signed were noted. The s.c. tumors were measured and the animals were weighed twice weekly starting with the first day of treatment, Day 15. Tumor volume was determined by caliper measurements (mm) and using the formula for an ellipsoid sphere as described in Example 7.

Molecule	IC50 (A549 cells)	IC50 (HL60 cells; HL60, 72 hours drug exposure)	IC50 (HT29 cells; HT29, 72 hours drug exposure)	IC50 (MOLT3 cells; MOLT3, 72 hours drug exposure)	IC50 (MX1 cells)	IC50 (PC3 cells; PC3, 72 hours drug exposure)	IC50 (SKBR3 cells; SKBR3, 72 hours drug exposure)	other results
Nc1ccn([C@@H]2O[C@H](CO)[C@@H](O)[C@@H]2O)c(=O)n1 [AraC, cytosine arabinoside]	> 100 µM	10 µM	> 100 µM	0.22 µM	> 100 µM	> 100 µM	> 100 µM	–
CC(C)C[C@H](NC(=O)[C@H](Cc1ccccc1)NC(=O)c1cnccn1)B(O)O [Bortezomib]	–	–	–	–	–	–	–	IC50 (RPMI-8226 cell line; RPMI8226, MTS): 0.00229 µM; IC50 (U266B1 cell line; U2661, MTS): 16.6 µM; % T/C on day 27 [1]: 70%; % T/C on day 48 [1]: 67%
N[C@@H](Cc1ccc(N(CCCl)CCCl)cc1)C(=O)O [Melphalan]	–	–	–	–	–	–	–	IC50 (RPMI-8226 cell line): 16.1 µM; IC50 (U266B1 cell line): 0.00316 µM
CCc1c2c(nc3ccc(O)cc13)-c1cc3c(c(=O)n1C2)COC(=O)[C@]3(O)CC [SN38, 7-ethyl-10-hydroxycamptothecin]	1300 µM	< 1 µM	0.12 µM	1 µM	0.15 µM	46 µM	< 1e-05 µM	–
COc1cc([C@@H]2c3cc4c(cc3[C@@H](O[C@@H]3O[C@@H]5CO[C@@H](C)O[C@H]5[C@H](O)[C@H]3O)[C@H]3COC(=O)[C@H]23)OCO4)cc(OC)c1O [VP16, etoposide]	–	–	–	–	–	–	–	IC50 (HL-60 cells): 2 µM; IC50 (HUNS-1 cells): 3.1 µM; IC50 (K562 cells): 7.6 µM; IC50 (MC116 cells): 0.23 µM; IC50 (MOLT-3 cells): 0.024 µM; IC50 (NCI-H929 cells): 2.4 µM; IC50 (RAMOS cells): 0.11 µM; IC50 (RPMI 8226 cells): 0.37 µM; IC50 (U266B-1 cells): 5.9 µM; IC50 (U937 cells): 0.44 µM; IC50 (H9 cells): 0.73 µM; IC50 (HUT78 cells): 1.4 µM
N.N.[Cl][Pt][Cl] [cisplatin]	6 µM	12 µM	720 µM	0.57 µM	170 µM	87 µM	7 µM	–
COc1cccc2c1C(=O)c1c(O)c3c(c(O)c1C2=O)C[C@@](O)(C(=O)CO)C[C@@H]3O[C@H]1C[C@H](N)[C@H](O)[C@H](C)O1 [doxorubicin]	–	–	–	–	–	–	–	IC50 (A549 cells; Homo sapiens): 1.3 µM; IC50 (HL60 cells; Homo sapiens, HL-60, HL60, 72 hours drug exposure): > 100 µM; IC50 (HT29 cells; Homo sapiens, HT-29, HT29, 72 hours drug exposure): > 100 µM; IC50 (MOLT3 cells; Homo sapiens, MOLT-3, MOLT3, 72 hours drug exposure): 0.0069 µM; IC50 (MX1 cells; Homo sapiens): > 100 µM; IC50 (PC3 cells; Homo sapiens, PC-3, PC3, 72 hours drug exposure): 11 µM; IC50 (SKBR3 cells; Homo sapiens, SK-BR-3, SKBR3, 72 hours drug exposure): 0.29 µM
Rituximab: Rituxan® (Rituximab), standard agent	–	–	–	–	–	–	–	% T/C on day 24 (RL human lymphoma cells): 95%; % T/C on day 38 (RL human lymphoma cells): 102%
arsenic trioxide	420 µM	20 µM	80 µM	3.7 µM	97 µM	1200 µM	100 µM	–
